Assays:
[1] = system: hepatocytes; test: Fatty liver model: RT-PCR metabolic gene expression; conditions: high insulin/glucose disease conditions; pioglitazone 1.5 μM
[2] = system: hepatocytes; test: Fatty liver model: measurement of total triglycerides; assay type: cell-based, rat; conditions: high insulin/glucose media; pioglitazone 1.5 μM; to levels similar to healthy conditions
Protocol: Triglyceride content was assessed using a commercially available colorimetric assay kit (Cayman Triglyceride Colorimetric Assay Kit, Cat #10010303). At the end of the treatment period, cells were collected from the porous membranes by scraping with a rubber policeman and PBS, after which they were centrifuged (2,000×g for 10 minutes at 4° C.). The cell pellets were resuspended in 100 μl of cold diluted Standard Diluent from the triglyceride assay kit and sonicated 20 times at one second bursts. The cell suspension was then centrifuged at 10,000×g for 10 minutes at 4° C. The supernatant was removed and used for the assay as per the manufacturer's protocol and normalized to protein content from the same samples.

SMILES: CCc1ccc(CCOc2ccc(CC3SC(=O)NC3=O)cc2)nc1 (centres unmarked) [Pioglitazone, pioglitazone]
- expression of metabolic genes such as Cyp3A2 [1]: restored
- total triglyceride content of hepatocytes [2]: reduced

From patent US11061016B2, “In vitro model for pathological or physiologic conditions” (HemoShear, LLC, priority 2012, dated 2021)
